US20120202847A1, “Novel Tetrahydroisoquinoline Compounds” (priority 2009, published 2012)

Biological target: T1, DGAT1 enzyme (Homo sapiens, UniProt O75907)
T1 construct: made in house
T1 sequence (O75907 1-488): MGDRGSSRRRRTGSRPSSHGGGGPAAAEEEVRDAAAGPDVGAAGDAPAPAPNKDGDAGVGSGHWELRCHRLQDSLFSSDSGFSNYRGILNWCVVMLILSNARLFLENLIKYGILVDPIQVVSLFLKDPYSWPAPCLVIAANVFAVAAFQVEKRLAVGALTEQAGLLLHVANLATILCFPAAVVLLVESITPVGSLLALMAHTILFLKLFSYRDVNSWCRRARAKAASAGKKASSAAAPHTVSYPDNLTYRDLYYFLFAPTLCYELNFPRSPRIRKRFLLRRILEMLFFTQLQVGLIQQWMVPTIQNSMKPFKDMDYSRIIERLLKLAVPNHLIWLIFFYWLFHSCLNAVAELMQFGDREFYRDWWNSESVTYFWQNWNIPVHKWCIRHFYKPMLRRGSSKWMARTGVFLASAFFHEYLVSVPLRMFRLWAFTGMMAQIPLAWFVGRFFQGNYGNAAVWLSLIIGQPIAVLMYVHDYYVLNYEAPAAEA
Test: DGAT1 inhibitory activity test
Assay type: biochemical
Conditions: test compound concentration of 0.05 μg/ml; [14C]-oleoyl-CoA, 23° C., 30 minutes; read-out: Inhibitory Rate
Experimental: (1) Preparation of DGAT1 Enzyme
DGAT1 enzyme was prepared and stored according to the method described in US2007/0249620.
(2) DGAT1 Inhibitory Activity Test
A reaction solution having the following composition was incubated at room temperature (23° C.) for 30 minutes: 175 mM Tris-HCl (pH 8.0), 8 mM MgCl2, 1 mg/ml BSA, 0.3 mM 1,2-dioleoyl-sn-glycerol (10-fold concentration of EtOH solution, 10% added), 10 μM [^14C]-oleoyl-CoA (approximately 50 mCi/mmol), 0.5% Triton X-100, the DGAT1 enzyme (10 μg) obtained in Test Example 1(1), and a test compound or vehicle (DMSO/MeOH, 7:3 solution, 5% added), 50 μl in total. A reaction stop solution […] consisting of isopropanol/1-heptane/water (80:20:2, v/v/v) was added to the reaction solution and stirred. Subsequently, water […] and 1-heptane (100 μl) were added thereto and stirred. The 1-heptane layer […] was spotted onto a TLC plate and developed with a developing solvent consisting of 1-hexane/diethyl ether/acetic acid (85:15:1, v/v/v). The radioactivity of the triglyceride fraction was quantified using BAS2500 Bio Image Analyzer (FUJIFILM) and compared with the control. The inhibitory activity of the test compound was calculated according to the formula shown below. In this context, the radioactivity at no reaction (0 minute incubation) was used as background.
Inhibitory Rate=100−[(Radioactivity of sample supplemented with test compound)−(Background)]/[(Radioactivity of control)−(Background)]×100

Inhibition at 0.05 µg/mL, ≥ 50%:
O=C(O)C[C@H]1CC[C@H](OC(=O)N2CCc3cc(NC(=O)Nc4ccc(F)cc4F)ccc3C2)CC1 [Example 1, trans-6-[3-(2,4-difluoro-phenyl)-ureido]-3,4-dihydro-1H-isoquinoline-2-carboxylic acid 4-carboxymethyl-cyclohexyl ester]
O=C(O)C[C@H]1CC[C@H](OC(=O)N2CCc3cc(NC(=O)Nc4cccc(F)c4F)ccc3C2)CC1 [Example 3, trans-6-[3-(2,3-difluoro-phenyl)-ureido]-3,4-dihydro-1H-isoquinoline-2-carboxylic acid 4-carboxymethyl-cyclohexyl ester]
O=C(O)C[C@H]1CC[C@H](OC(=O)N2CCc3cc(NC(=O)Nc4cc(F)ccc4F)ccc3C2)CC1 [Example 4, trans-6-[3-(2,5-difluoro-phenyl)-ureido]-3,4-dihydro-1H-isoquinoline-2-carboxylic acid 4-carboxymethyl-cyclohexyl ester]
O=C(O)C[C@H]1CC[C@H](OC(=O)N2CCc3cc(NC(=O)Nc4c(F)cccc4F)ccc3C2)CC1 [Example 5, trans-6-[3-(2,6-difluoro-phenyl)-ureido]-3,4-dihydro-1H-isoquinoline-2-carboxylic acid 4-carboxymethyl-cyclohexyl ester]
Cc1cccc(NC(=O)Nc2ccc3c(c2)CCN(C(=O)O[C@H]2CC[C@H](CC(=O)O)CC2)C3)c1F [Example 6, trans-6-[3-(2-fluoro-3-methyl-phenyl)-ureido]-3,4-dihydro-1H-isoquinoline-2-carboxylic acid 4-carboxymethyl-cyclohexyl ester]
Cc1ccc(F)c(NC(=O)Nc2ccc3c(c2)CCN(C(=O)O[C@H]2CC[C@H](CC(=O)O)CC2)C3)c1 [Example 7, trans-6-[3-(2-fluoro-5-methyl-phenyl)-ureido]-3,4-dihydro-1H-isoquinoline-2-carboxylic acid 4-carboxymethyl-cyclohexyl ester]
Cc1ccc(NC(=O)Nc2ccc3c(c2)CCN(C(=O)O[C@H]2CC[C@H](CC(=O)O)CC2)C3)c(F)c1 [Example 8, trans-6-[3-(2-fluoro-4-methyl-phenyl)-ureido]-3,4-dihydro-1H-isoquinoline-2-carboxylic acid 4-carboxymethyl-cyclohexyl ester]
Cc1cccc(F)c1NC(=O)Nc1ccc2c(c1)CCN(C(=O)O[C@H]1CC[C@H](CC(=O)O)CC1)C2 [Example 9, trans-6-[3-(2-fluoro-6-methyl-phenyl)-ureido]-3,4-dihydro-1H-isoquinoline-2-carboxylic acid 4-carboxymethyl-cyclohexyl ester]
O=C(O)C[C@H]1CC[C@H](OC(=O)N2CCc3cc(NC(=O)Nc4cccc(Cl)c4F)ccc3C2)CC1 [Example 10, trans-6-[3-(3-chloro-2-fluoro-phenyl)-ureido]-3,4-dihydro-1H-isoquinoline-2-carboxylic acid 4-carboxymethyl-cyclohexyl ester]
O=C(O)C[C@H]1CC[C@H](OC(=O)N2CCc3cc(NC(=O)Nc4ccc(Cl)cc4F)ccc3C2)CC1 [Example 11, trans-6-[3-(4-chloro-2-fluoro-phenyl)-ureido]-3,4-dihydro-1H-isoquinoline-2-carboxylic acid 4-carboxymethyl-cyclohexyl ester]
O=C(O)C[C@H]1CC[C@H](OC(=O)N2CCc3cc(NC(=O)Nc4cc(Cl)ccc4F)ccc3C2)CC1 [Example 12, trans-6-[3-(5-chloro-2-fluoro-phenyl)-ureido]-3,4-dihydro-1H-isoquinoline-2-carboxylic acid 4-carboxymethyl-cyclohexyl ester]
O=C(O)C[C@H]1CC[C@H](OC(=O)N2CCc3cc(NC(=O)Nc4c(F)cccc4Cl)ccc3C2)CC1 [Example 13, trans-6-[3-(2-chloro-6-fluoro-phenyl)-ureido]-3,4-dihydro-1H-isoquinoline-2-carboxylic acid 4-carboxymethyl-cyclohexyl ester]
O=C(O)C[C@H]1CC[C@H](OC(=O)N2CCc3cc(NC(=O)Nc4ccc(F)c(F)c4F)ccc3C2)CC1 [Example 14, trans-6-[3-(2,3,4-trifluoro-phenyl)-ureido]-3,4-dihydro-1H-isoquinoline-2-carboxylic acid 4-carboxymethyl-cyclohexyl ester]
O=C(O)C[C@H]1CC[C@H](OC(=O)N2CCc3cc(NC(=O)Nc4c(F)cc(F)cc4F)ccc3C2)CC1 [Example 15, trans-6-[3-(2,4,6-trifluoro-phenyl)-ureido]-3,4-dihydro-1H-isoquinoline-2-carboxylic acid 4-carboxymethyl-cyclohexyl ester]
O=C(O)C[C@H]1CC[C@H](OC(=O)N2CCc3cc(NC(=O)Nc4ccc(C(F)(F)F)cc4F)ccc3C2)CC1 [Example 16, trans-6-[3-(2-fluoro-4-trifluoromethyl-phenyl)-ureido]-3,4-dihydro-1H-isoquinoline-2-carboxylic acid 4-carboxymethyl-cyclohexyl ester]
O=C(O)C[C@H]1CC[C@H](OC(=O)N2CCc3cc(NC(=O)Nc4ccccc4C(F)(F)F)ccc3C2)CC1 [Example 17, trans-6-[3-(2-trifluoromethyl-phenyl)-ureido]-3,4-dihydro-1H-isoquinoline-2-carboxylic acid 4-carboxymethyl-cyclohexyl ester]
O=C(O)C[C@H]1CC[C@H](OC(=O)N2CCc3cc(NC(=O)Nc4ccc(F)cc4C(F)(F)F)ccc3C2)CC1 [Example 18, trans-6-[3-(4-fluoro-2-trifluoromethyl-phenyl)-ureido]-3,4-dihydro-1H-isoquinoline-2-carboxylic acid 4-carboxymethyl-cyclohexyl ester]
COc1ccc(NC(=O)Nc2ccc3c(c2)CCN(C(=O)O[C@H]2CC[C@H](CC(=O)O)CC2)C3)c(C)c1 [Example 19, trans-6-[3-(4-methoxy-2-methyl-phenyl)-ureido]-3,4-dihydro-1H-isoquinoline-2-carboxylic acid 4-carboxymethyl-cyclohexyl ester]
Cc1ccc(NC(=O)Nc2ccc3c(c2)CCN(C(=O)O[C@H]2CC[C@H](CC(=O)O)CC2)C3)c(Cl)c1 [Example 20, trans-6-[3-(2-chloro-4-methyl-phenyl)-ureido]-3,4-dihydro-1H-isoquinoline-2-carboxylic acid 4-carboxymethyl-cyclohexyl ester]
O=C(O)C[C@H]1CC[C@H](OC(=O)N2CCc3cc(NC(=O)Nc4cccc(C(F)(F)F)c4F)ccc3C2)CC1 [Example 21, trans-6-[3-(2-fluoro-3-trifluoromethyl-phenyl)-ureido]-3,4-dihydro-1H-isoquinoline-2-carboxylic acid 4-carboxymethyl-cyclohexyl ester]
O=C(O)C[C@H]1CC[C@H](OC(=O)N2CCc3cc(NC(=O)Nc4cc(C(F)(F)F)ccc4F)ccc3C2)CC1 [Example 22, trans-6-[3-(2-fluoro-5-trifluoromethyl-phenyl)-ureido]-3,4-dihydro-1H-isoquinoline-2-carboxylic acid 4-carboxymethyl-cyclohexyl ester]
Cc1ccc(NC(=O)Nc2ccc3c(c2)CCN(C(=O)O[C@H]2CC[C@H](CC(=O)O)CC2)C3)c(C)c1 [Example 23, trans-6-[3-(2,4-dimethyl-phenyl)-ureido]-3,4-dihydro-1H-isoquinoline-2-carboxylic acid 4-carboxymethyl-cyclohexyl ester]
O=C(O)C[C@H]1CC[C@H](OC(=O)N2CCc3cc(NC(=O)Nc4ccc(Cl)cc4Cl)ccc3C2)CC1 [Example 24, trans-6-[3-(2,4-dichloro-phenyl)-ureido]-3,4-dihydro-1H-isoquinoline-2-carboxylic acid 4-carboxymethyl-cyclohexyl ester]
O=C(O)C[C@H]1CC[C@H](OC(=O)N2CCc3cc(NC(=O)Nc4c(F)cccc4C(F)(F)F)ccc3C2)CC1 [Example 25, trans-6-[3-(2-fluoro-6-trifluoromethyl-phenyl)-ureido]-3,4-dihydro-1H-isoquinoline-2-carboxylic acid 4-carboxymethyl-cyclohexyl ester]
